In PMC10562414, “GLP-1R signaling neighborhoods associate with the susceptibility to adverse drug reactions of incretin mimetics” (Nature Communications, 2023):

Tests used:
[1] = target: T1, GLP-1R (Homo sapiens, UniProt P43220); assay: ebBRET pathway activation (15 pathways) at early endosomes (rGFP-FYVE); assay type: cell-based; conditions: for Efficacy (normalized) / Potency (logEC50) / Emax: Early endosomes
Protocol: Subcellular resolution was achieved by using organelle-specific energy acceptors for early endosomes, the Golgi apparatus and the endoplasmic reticulum.
Data are represented as the mean ± SEM (n = 3 biologically independent experiments). EE early endosomes, GA Golgi apparatus, ER endoplasmic reticulum.
HEK293 cells were cultured in DMEM supplemented with 10% FBS, 1% penicillin/streptomycin, propagated in plastic flasks and grown at 37 °C in 5% CO2 and 90% humidity. […] After a 48-hour incubation, cells were washed once with HBSS and maintained in the same buffer.
Best fit values were excluded if EC50 was outside of the concentration range tested or if the span was negative.
Pharmacological characterization of GLP-1R agonist signaling
profiles at early endosomes. a, Illustration depicting the ebBRET approach to monitoring
signaling at early endosomes. b, Concentration-response curves of GLP-1R agonists across 15
pathways at early endosomes using rGFP-F YVE. Data are represented by the non-linear fit and
scaled according to the highest responding drug (n=3 biologic ally independent samples).
Drug-s pecific polar area diagrams for efficacy (normalized to the highest responding drug) (c)
Drugs were deemed to activate
a given pathway after comparing the top and bottom parameters from non-linear regression by
Jaccard similarity index for efficacy (e) and potency (f) quantifies similarities and
differences across drug responses.
Drug- induced transducer engagement by GLP- 1R at early
endosomes. Agonist concentration response curves for 15 transducers at early endosomes.
Drugs were deemed to activate a given pathway after comparing the top and bottom parameters
from non-linear regression by one-sided extra sum-o f-s quares F-t est followed by Bonferroni
Data are represented as the mean ± SEM (n=3
biologically independent samples). Sigmoidal dose-r esponse curves are present for
responsive pathways and flat lines indicate non-r esponding pathway s.
Polar area diagrams depict pathway activation at early endosomes.
Pathway-specific polar area diagrams for efficacy (normalized to the highest responding drug) (a)
Drugs were deemed to activate a
given pathway after comparing the top and bottom parameters from non-linear regression by

[2] = system: GLP-1R-expressing HEK293 cells + Dyngo-4A (phosphoproteome); assay: Phosphoproteomics, GLP-1R-transfected cells with internalization inhibitor Dyngo-4A, 30 min; assay type: cell-based, human; conditions: 1 μM, 30 min, vs vehicle, n = 3
Protocol: P values were calculated by a two-sided unpaired t-test.
HEK293 cells (350,000 cells/mL) were transfected in suspension using 3 μg of linear PEI (MW 25,000) per 1 μg of plasmid DNA and seeded onto poly-D-lysine-coated 60 mm dishes at a density of 1,750,000 cells per dish. After a 24-h incubation, cells were washed twice with PBS and placed in starvation media (DMEM with penicillin/streptomycin). After a 48-h incubation, cells were washed twice with HBSS and maintained in the same buffer. […] Cell extracts were prepared as previously described[64]–[66]. In short, 200 μL of the lysis buffer preheated at 95 °C (4% sodium dodecyl sulfate in 50 mM Tris adjusted to pH 8.5) was added to the cells. The samples were then denatured at 95 °C for 10 min, placed on ice and then sonicated using a probe sonicator (3 sec on, 3 sec off pulse, 1 min, 30% amplitude) (Branson). Lysate protein concentration was determined using the Pierce bicinchoninic acid assay kit (Thermo Fisher Scientific) according to the manufacturer’s instructions. The lysates were reduced using 5 mM dithiothreitol for 1 h at room temperature and alkylated using 15 mM iodoacetamide for 1 h at room temperature in the dark. Proteins were precipitated and digested on beads using MagReSyn Amine magnetic beads (ReSyn Biosciences) according to the manufacturer’s instructions. Protein digestion was conducted overnight at 37 °C with lysyl endopeptidase (LysC, Wako) (1:150 LysC/protein, w/w) and trypsin (1:300 trypsin/protein, w/w). 20% TFA, 2 M glycolic acid in 80% ACN were added to the samples at a 1:1 ratio for phosphopeptide enrichment using MagReSyn TiO2 magnetic beads (ReSyn Biosciences) according to the manufacturer’s instructions. The enriched phosphopeptides were dried overnight in a SpeedVac, resuspended into 5% formic acid (FA), desalted using StageTip (Thermo Fisher Scientific) according to the manufacturer’s instructions and dried in a SpeedVac. The experiment was performed in biological triplicates.
All parameters and settings regarding the acquisition of the proteomics data can be found in Supplementary Data 11, 12. For data acquisition, the instrument was set to peptide mode, with a trapping pressure set as low (2mTorr). An EASY-Spray Source (Thermo Fisher Scientific) was used and the column temperature was maintained with the integrated, temperature-controlled heater at 55 °C throughout the experiment. For the data presented in Fig. 5d, the column was heated at 50 °C following the manufacturer’s instructions (IonOpticks).
Acquired raw files were converted to mzML format by MSConvert (version 3.0.21258)[67] applying peak picking of the mass spectra with the vendor-provided algorithm (Thermo Fisher Scientific). The mzML files were analyzed using the FragPipe GUI v18 for both library and DIA search. […] Trypsin with up to 2 missed cleavages was set as digestion enzyme, oxidation of methionine, acetylation of the N-terminus and phosphorylation on serine, threonine and tyrosine (maximal occurrence was set to three) were set as variable modifications. Carbamidomethylation of cysteine residues was set as a fixed modification. Peptide length was restricted to 7 to 50 amino acids, and 500 to 5000 Da. The precursor tolerance was set to ±20 ppm, fragment mass tolerance to 20 ppm and MSBooster was enabled. The resulting peptide-spectrum matches were adjusted to a 1% false discovery rate with Percolator[69] as part of the Philosopher toolkit (v4.4)[70] and converted to a spectra library. DIA files were analyzed by DIA-NN 1.8.1[71], [72] using the previously generated library and monitor-command mode. Peptide quantification was performed based on the fragment elution profiles from the MS2 level (area under the curve).
All further data processing was performed in R (version 4.2.1). Only phosphopeptides with a localization score of at least 0.75 were considered for further analysis. […]

[3] = target: kinase substrates (Kinase Library); assay: Kinase substrate enrichment analysis of regulated phosphopeptides; set-up: species or system human; conditions: 1 μM
Protocol: All further data processing was performed in R (version 4.2.1). Only phosphopeptides with a localization score of at least 0.75 were considered for further analysis. Peptides quantified with different charge states were aggregated and only phosphopeptides with at least 2 quantifications for each time point, treatment and replicate were kept. Intensities were normalized by median centering and log2-scaling. Missing values were imputed by k-NN imputation. All statistical comparisons were performed based on homoscedastic two-tailed Student’s t-tests. For the kinase substrate enrichment analysis, the Kinase Library online analytical tool[73] was used with predetermined foreground and background sets based on previously determined significance thresholds (P < 0.05; log2 fold change >1). All remaining settings were left as default.

[4] = target: T1, GLP-1R; assay: Hierarchical / k-means / fuzzy clustering of GLP-1R agonist signaling profiles (z-scored Emax and EC50, cluster centers)
Text: Using ebBRET, we extended our pathway profiling to endosomes, the Golgi apparatus and the endoplasmic reticulum. […] In short, positive k-means cluster centers were indicative of high potency or efficacy in a specific pathway and compartment, whereas negative k-means cluster centers could be interpreted as pathways that were underrepresented or not activated by a given drug cluster (Fig. 6c).
Efficacy and potency were extracted from concentration-response curves and aggregated before k-means clustering. b Hierarchical clustering of GLP-1R agonists based on signaling neighborhood profiles. c Cluster centers of distinct drug clusters identified by k-means clustering. Defining cluster features are listed by rank order, and the top and bottom five features are highlighted for each cluster.
represented as z-scores. Pathways that were not activated by GLP-1R upon exposure to ligand
according to efficacy or potency, compartments, and pathways. Pathways that were not activated
by any drug were removed for clarity. c, Heatmap and hierarchical clustering of efficacy for 8
drugs in 15 pathways and 4 cellular compartments. Data are represented as z-scores.

T1 sequence (P43220 24-463): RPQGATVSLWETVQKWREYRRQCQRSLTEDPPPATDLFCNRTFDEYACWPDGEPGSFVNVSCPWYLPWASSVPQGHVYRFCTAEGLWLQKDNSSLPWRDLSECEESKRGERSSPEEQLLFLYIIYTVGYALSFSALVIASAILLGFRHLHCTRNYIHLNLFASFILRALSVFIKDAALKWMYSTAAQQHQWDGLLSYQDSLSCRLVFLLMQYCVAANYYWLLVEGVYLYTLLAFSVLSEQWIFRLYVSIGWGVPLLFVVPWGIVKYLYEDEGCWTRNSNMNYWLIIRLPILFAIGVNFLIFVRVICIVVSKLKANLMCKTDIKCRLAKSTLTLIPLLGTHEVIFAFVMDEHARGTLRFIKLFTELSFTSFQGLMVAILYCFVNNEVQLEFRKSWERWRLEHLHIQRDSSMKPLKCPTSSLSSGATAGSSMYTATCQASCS

SMILES: N#Cc1ccc(COc2cccc(C3CCN(Cc4nc5ccc(C(=O)O)cc5n4C[C@@H]4CCO4)CC3)n2)c(F)c1 [Danuglipron]
- Efficacy (normalized) ([1]; GRK2/Gβγ): 0.507
- Potency (logEC50) ([1]; GRK2/Gβγ): 0.4671
- Efficacy (normalized) ([1]; Gα11): 0
- Emax ([1]; Gα11): 0
- Potency (logEC50) ([1]; Gα11): 0
- Efficacy (normalized) ([1]; Gα12): 0
- Emax ([1]; Gα12): 0
- Potency (logEC50) ([1]; Gα12): 0
- Efficacy (normalized) ([1]; Gα13): 0
- Emax ([1]; Gα13): 0
- Potency (logEC50) ([1]; Gα13): 0
- Efficacy (normalized) ([1]; Gα14): 0.9516
- Emax ([1]; Gα14): 0.02161
- Potency (logEC50) ([1]; Gα14): 0.7414
- Efficacy (normalized) ([1]; Gα15): 0
- Emax ([1]; Gα15): 0
- Potency (logEC50) ([1]; Gα15): 0
- Efficacy (normalized) ([1]; Gαi1): 0
- Emax ([1]; Gαi1): 0
- Potency (logEC50) ([1]; Gαi1): 0
- Efficacy (normalized) ([1]; Gαi2): 0
- Emax ([1]; Gαi2): 0
- Potency (logEC50) ([1]; Gαi2): 0
- Efficacy (normalized) ([1]; Gαi3): 0
- Emax ([1]; Gαi3): 0
- Potency (logEC50) ([1]; Gαi3): 0
- Efficacy (normalized) ([1]; GαoA): 0.4649
- Emax ([1]; GαoA): 0.009912
- Potency (logEC50) ([1]; GαoA): 0.573
- Efficacy (normalized) ([1]; GαoB): 0.7256
- Emax ([1]; GαoB): 0.03076
- Potency (logEC50) ([1]; GαoB): 0.2577
- Efficacy (normalized) ([1]; Gαq): 0
- Emax ([1]; Gαq): 0
- Potency (logEC50) ([1]; Gαq): 0
- Efficacy (normalized) ([1]; Gαs): 0
- Emax ([1]; Gαs): 0
- Potency (logEC50) ([1]; Gαs): 0
- Efficacy (normalized) ([1]; Gαz): 0.5189
- Emax ([1]; Gαz): 0.05365
- Potency (logEC50) ([1]; Gαz): 0.2291
- Efficacy (normalized) ([1]; βARR2): 0.458
- Potency (logEC50) ([1]; βARR2): 0.384
- Emax ([1]; GRK/Gβγ): 0.1194
- Emax ([1]; βARR): 0.07877
- mGs recruitment at early endosomes, in words ([1]; Rluc8-mGs, rGFP-FYVE, 60 min, n = 3): did not promote mGs recruitment at early endosomes at the concentrations tested
- log2.foldchange, PABPN1 S19 ([2]; Dyngo internalization inhibitor (50 μM, 30 min pre), p 0.975742): 0.005523
- log2.foldchange, EIF3J S13 ([2]; Dyngo internalization inhibitor, p 0.0121456 (passed all criteria)): 2
- log2.foldchange, EIF3J S11;S13 ([2]; Dyngo internalization inhibitor, p 0.107013): 0.1859
- log2.foldchange, VPS51 S18 ([2]; Dyngo internalization inhibitor, p 0.460124): -0.1867
- log2.foldchange, POLE4 S9;T11 ([2]; Dyngo internalization inhibitor, p 0.765877): -0.2937
- kinase kinetics, in words [3]: distinctly different kinetics
- dominant_enrichment_value_log2, NUAK2 ([3]; 15min, log10 abs adjusted p 0.784095): 1.911
- dominant_enrichment_value_log2, PKACA ([3]; 15min, log10 abs adjusted p 0.96096): 2.68
- dominant_enrichment_value_log2, PRKD3 ([3]; 15min, log10 abs adjusted p 1.61335): 3.823
- dominant_enrichment_value_log2, PRKD2 ([3]; 15min, log10 abs adjusted p 1.89437): 2.877
- dominant_enrichment_value_log2, SIK ([3]; 15min, log10 abs adjusted p 3.68823): 3.799
- z-scores [4]: -0.3536
- drug cluster (hierarchical / k-means) ([4]; efficacy and potency, 15 pathways, 4 compartments): 4
- defining cluster features, in words ([4]; k-means cluster centers): endoplasmic reticulum-localized recruitment of mGs and decreased recruitment of βARR at the plasma membrane
